These are literature values, as cited in paper PMC8453635, “Piperidine Azasugars Bearing Lipophilic Chains: Stereoselective Synthesis and Biological Activity as Inhibitors of Glucocerebrosidase (GCase)” (The Journal of Organic Chemistry, 2021).

Numbering of substitutions follows the chain as printed. Read-outs that look alike come from different tables or passages of the source.

For one data set, the system named is L444P variant. Details: method as in PMID 12434014. The note with it: cited from earlier work.
The test system of data set [1] is N370S mutant enzyme in fibroblasts. The following applies: cited from earlier work.
A further data set has as its target T1, GCase (Homo sapiens, UniProt P04062).
T1 construct: screened toward GCase in leukocytes isolated from healthy donors (controls); from tissue; host or cells: leukocytes isolated from healthy donors, disrupted by sonication
T1 sequence (P04062 40-536): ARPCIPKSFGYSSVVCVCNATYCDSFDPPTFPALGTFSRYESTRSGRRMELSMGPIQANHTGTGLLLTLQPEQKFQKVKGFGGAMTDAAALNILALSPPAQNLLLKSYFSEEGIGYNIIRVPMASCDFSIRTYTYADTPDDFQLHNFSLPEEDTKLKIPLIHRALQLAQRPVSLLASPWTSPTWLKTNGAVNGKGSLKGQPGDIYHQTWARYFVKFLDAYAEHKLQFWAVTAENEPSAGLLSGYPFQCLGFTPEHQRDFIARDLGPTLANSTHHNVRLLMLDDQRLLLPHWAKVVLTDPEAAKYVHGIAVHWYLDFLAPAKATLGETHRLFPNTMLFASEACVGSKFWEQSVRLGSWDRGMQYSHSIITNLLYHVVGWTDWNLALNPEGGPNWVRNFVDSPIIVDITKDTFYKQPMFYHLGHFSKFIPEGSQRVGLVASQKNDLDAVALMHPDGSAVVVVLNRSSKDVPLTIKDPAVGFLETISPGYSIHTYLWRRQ
The note with it: cited from earlier work; for IC50: human leukocytes, same experimental protocol and substrate concentration.

A further data set has as its system wild-type fibroblasts. Also on record: method as in PMID 32200326. The note with it: cited from earlier work.
The target in the next data set is lysosomal GCase. The note with it: toward GCase; cited from earlier work.
Data set [2] has as its target T2, GCase in fibroblasts bearing the L444P/L444P mutations (Homo sapiens, UniProt P04062, L483P).
T2 construct: fibroblasts derived from Gaucher patients bearing the N370S/RecNcil and L444P/L444P mutations; host or cells: fibroblasts from Gaucher disease patients, L444P/L444P
T2 sequence (P04062 40-536 L483P): T1 sequence (P04062 40-536) with L444P
Details: method as in PMID 30996807, PMID 32200326. The note with it: homozygous L444P mutation, 100 μM; cited from earlier work.

Data set [3] concerns the target T3, GCase in fibroblasts bearing the N370S/RecNcil mutation (Homo sapiens, UniProt P04062, A495P/L483P/N409S).
T3 construct: fibroblasts derived from Gaucher patients bearing the N370S/RecNcil and L444P/L444P mutations; host or cells: fibroblasts from Gaucher disease patients, N370S/RecNcil
T3 sequence (P04062 40-536 N409S): T1 sequence (P04062 40-536) with N370S
Details: method as in PMID 30996807, PMID 32200326. The note with it: 100 μM; cited from earlier work.

Turning to `CCCCCCCCCN1C[C@H](O)[C@@H](O)[C@H](O)[C@H]1CO` [compound 5, N-nonyl-DNJ], the “enhancement of intracellular activity of the L444P variant” value with L444P variant is listed as “did not enhance”. Further, in data set [1] (fibroblasts, 10 μM concentration), the “increase in the activity of the N370S mutant enzyme” value is “twofold increase”.
Turning to `CCCCCCCCN1C[C@@H](O)C(O)[C@H](O)C1` [compound 9], in data set [1] (N370S-mutated fibroblasts at 100 μM), the activity increase is given as 1.25 fold. For the same compound, at GCase (human leukocytes extracts incubated with azasugars (1 mM), previously reported compounds), the “GCase inhibition [%]” value was 98%. In addition, the IC50 at GCase was 30 ± 1 µM. For the same compound, in the data set on wild-type fibroblasts (50 μM), the “PC activity (enzyme activity enhancement)” value is reported as 1.5 fold.
Take `CCCCCCCCC[C@H]1NC[C@@H](O)[C@H](O)[C@H]1O` [compound 7, α-1-C-nonyl-DIX]: the IC50 on lysosomal GCase was 0.0068 µM. Moreover, the enzyme activity increase in data set [1] (N370S mutated fibroblasts at 10 nM) is on record as 1.8 fold.
Turning to `CCCCCCCC[C@@H]1NC[C@@H](O)[C@@H](O)[C@@H]1O` [compound 11], the IC50 at GCase (ref 16 and 17) was 93.5 ± 5.3 µM.
With `CCCCCCCC[C@H]1NC[C@@H](O)[C@@H](O)[C@@H]1O` [compound 12], the values for the enzyme recovery in data set [2] and in data set [3] were 1.80 fold and 1.9 fold, respectively. For the same compound, the IC50 at GCase (ref 16 and 17) is 29.3 ± 1.8 µM. In addition, in the data set with wild-type fibroblasts (100 μM), the “PC activity (enzyme activity enhancement)” value is 1.4 fold.

Broadly, the IC50 is the midpoint of a concentration-inhibition curve.
